According to patent publication US20030109460A1, “Medicinal composition containing camptothecin derivative and ph regulating agent” (priority 2000, published 2003):
“And” between values parts separate entries of the source, which are not always exact repeats. Identical values can stand only once. One block for each compound: values may come before it.

Key:
[1] = Stability against heat and light; assay type: physicochemical; settings: severe treatment with heat and light
Procedure: In consequence, overkill approach and the like sterilization methods which accompany heating are not suited for the pharmaceutical composition of the invention. In order to obtain a substantially sterilized condition, it is desirable to employ a method in which the pharmaceutical composition is prepared under aseptic condition, a method in which a filter sterilization-treated solution of the pharmaceutical composition is made into a freeze-dried preparation, and the like. Particularly, the method for making a freeze-dried preparation is desirable. In addition, it is desirable for its preservation to use a container having shading ability. For example, brown vials and the like can be cited.

[2] = Solubility under strongly acidic condition; assay type: physicochemical; settings: strongly acidic condition of pH 2.0 or less; salting out
From the text: Generally, camptothecin derivatives have a lactone ring structure, so it is considered that reduction of the drug effect occurs due to ring-opening of the lactone ring in the structure in the alkaline range. In consequence, it is desirable that a pharmaceutical composition containing a camptothecin derivative having a lactone ring or a salt thereof is maintained within acidic range for the purpose of keeping the lactone ring under closed state. […] From two viewpoints of keeping closed state of lactone ring and ensuring proper solubility of the compound, it is desirable that the pharmaceutical composition of the invention is maintained within a weakly acidic condition by formulating a pH-adjusting substance. In this connection, when the pharmaceutical composition is an aqueous preparation, the term “a weakly acidic condition” as used herein means from about pH 3 to 6, and when the pharmaceutical composition is a freeze-dried preparation, it means that pH of an aqueous solution prepared by dissolving in water is from about pH 3 to 6.

tumor = test: Anti-tumor effect
[3] = Changes in pH by freeze drying treatment (Example 7); assay type: physicochemical; settings: for pH Before freeze drying / pH After freeze drying: Compound AS 2 mg, hydrochloric acid; for pH After freeze drying: redissolved to same concentration
Procedure: The pharmaceutical composition containing compound AS methanesulfonate was produced according to the formulation and production scale shown in Table 7 (AS methanesulfonate:maltose=1:19 or 1:38 by weight), and pH of the solution before freeze drying and pH of a solution prepared by dissolving the preparation after freeze drying in water to the same concentration of the solution before freeze drying were measured.

[4] = Stability of freeze-dried compound AS methanesulfonate, effect of pH, maltose 100 mg/ml (Example 5); assay type: physicochemical; settings: brown vials
Procedure: Maltose was added to an aqueous solution (1.0 mg/ml as a concentration converted to free form) of compound AS methanesulfonate to the final concentration of 100 mg/ml (AS methanesulfonate:maltose=1:77 by weight), and pH was adjusted to 3.5, 4.0 or 4.5 by adding hydrochloric acid. […] Brown vials were used as the container.

[5] = Stability of freeze-dried compound AS methanesulfonate, effect of pH, maltose 50 mg/ml (Example 6); assay type: physicochemical; settings: colorless vials
Procedure: Maltose was added to an aqueous solution (1.0 mg/ml as a concentration converted to free form) of compound AS methanesulfonate to the final concentration of 50 mg/ml (AS methanesulfonate:maltose=1:38 by weight), and pH was adjusted to 2.5, 3.0, 3.5 or 4.0 by adding hydrochloric acid. […] Colorless vials were used as the container.

[6] = Long term stability of freeze-dried compound AS methanesulfonate (Example 8); assay type: physicochemical
Procedure: A 1.4 kg portion of maltose and 73 g (56 g as converted to free form) of compound AS methanesulfonate was dissolved in 22 L of water (AS methanesulfonate:maltose=1:19 by weight). […] After freeze drying, this was stored under a condition of 5° C. or 25° C. with a relative humidity of 60%, and then dissolved in water to the same concentration of the solution before freeze drying to measure pH. […] Colorless vials were used as the container.

[7] = Stability of freeze-dried compound AS methanesulfonate, effect of adding amount of maltose (Example 4); assay type: physicochemical; settings: brown vials
[8] = Production scale 28.0 L, Maltose 50 mg, water total vol. 1 ml
[9] = Production scale 90.0 L, Maltose 100 mg, water total vol. 2 ml
[10] = 25° C., 60% R.H., Starting time

- stability against heat and light [1]: considerably unstable
- solubility [2]: considerably reduced
SMILES: CC[C@@]1(O)C(=O)OCc2c1cc1n(c2=O)Cc2c-1nc1cc(F)c(C)c3c1c2C(N)CC3 (stereo partly drawn) [compound A, (9S)-1-amino-9-ethyl-5-fluoro-2,3-dihydro-9-hydroxy-4-methyl-1H,12H-benzo[de]pyrano[3′,4′:6,7]indolizino[1,2-b]quinoline-10,13(9H,15H)-dione]

- pH Before freeze drying [3, 8]: 3.73 and 3.67
- pH After freeze drying [3, 8]: 4.00 and 3.83
- pH Before freeze drying [3, 9]: 3.85
- pH After freeze drying [3, 9]: 3.97
SMILES: CC[C@@]1(O)C(=O)OCc2c1cc1n(c2=O)Cc2c-1nc1cc(F)c(C)c3c1c2[C@@H](N)CC3 [compound AS, (1S,9S)-1-amino-9-ethyl-5-fluoro-2,3-dihydro-9-hydroxy-4-methyl-1H,12H-benzo[de]pyrano[3′,4′:6,7]indolizino[1,2-b]quinoline-10,13(9H,15H)-dione]
- anti-tumor effect (tumor): potent anti-tumor effect
- anti-tumor effect relative to compound AR (tumor; compound AS versus compound AR): about two times higher

SMILES: CC[C@@]1(O)C(=O)OCc2c1cc1n(c2=O)Cc2c-1nc1cc(F)c(C)c3c1c2[C@H](N)CC3 [compound AR, (1R,9S)-1-amino-9-ethyl-5-fluoro-2,3-dihydro-9-hydroxy-4-methyl-1H,12H-benzo[de]pyrano[3′,4′:6,7]indolizino[1,2-b]quinoline-10,13 (9H,15H)-dione]
- anti-tumor effect (tumor): potent anti-tumor effect

- Weight % of total analogous matter ([4]; pH 3.5, 40° C., 75% R.H., 1 month): 3.12 Weight %
- Weight % of total analogous matter ([4]; pH 3.5, 60° C., 2 weeks): 7.52 Weight %
- Weight % of total analogous matter ([4]; pH 3.5, Starting time): 0.72 Weight %
- Weight % of total analogous matter ([4]; pH 4.0, 40° C., 75% R.H., 1 month): 1.36 Weight %
- Weight % of total analogous matter ([4]; pH 4.0, 60° C., 2 weeks): 3.13 Weight %
- Weight % of total analogous matter ([4]; pH 4.0, Starting time): 0.50 Weight %
- Weight % of total analogous matter ([4]; pH 4.5, 40° C., 75% R.H., 1 month): 0.51 Weight %
- Weight % of total analogous matter ([4]; pH 4.5, 60° C., 2 weeks): 0.75 Weight %
- Weight % of total analogous matter ([4]; pH 4.5, Starting time): 0.40 Weight %
- Weight % of total analogous matter ([5]; pH 2.5, 60° C., 2 weeks): 21.43 Weight %
- Weight % of total analogous matter ([5]; pH 2.5, Starting time): 1.05 Weight %
- Weight % of total analogous matter ([5]; pH 3.0, 60° C., 2 weeks): 10.64 Weight %
- Weight % of total analogous matter ([5]; pH 3.0, Starting time): 0.42 Weight %
- Weight % of total analogous matter ([5]; pH 3.5, 60° C., 2 weeks): 5.07 Weight %
- Weight % of total analogous matter ([5]; pH 3.5, Starting time): 0.27 Weight %
- Weight % of total analogous matter ([5]; pH 4.0, 60° C., 2 weeks): 1.83 Weight %
- Weight % of total analogous matter ([5]; pH 4.0, Starting time): 0.23 Weight %
- change of pH by freeze drying treatment ([3]; maltose 1:19 or 1:38 by weight): hardly changes
- Total analogous matter weight % ([6]; 5° C., 1 month): 0.32 weight %
- pH ([6]; 5° C., 1 month): 3.9
- Total analogous matter weight % ([6]; 5° C., 3 months): 0.33 weight %
- pH ([6]; 5° C., 3 months): 3.9
- Total analogous matter weight % ([6]; 5° C., 6 months): 0.33 weight %
- pH ([6]; 5° C., 6 months): 3.7
- Total analogous matter weight % ([6]; 5° C., 9 months): 0.33 weight %
- pH ([6]; 5° C., 9 months): 4.0
- Total analogous matter weight % ([6]; 5° C., 12 months): 0.33 weight %
- pH ([6]; 5° C., 12 months): 3.9
- Total analogous matter weight % ([6]; 5° C., 24 months): 0.33 weight %
- pH ([6]; 5° C., 24 months): 4.1
- Total analogous matter weight % ([6]; 5° C., 30 months): 0.33 weight %
- pH ([6]; 5° C., 30 months): 4.6
- Total analogous matter weight % ([6]; 5° C., 37 months): 0.32 weight %
- pH ([6]; 5° C., 37 months): 3.7
- Total analogous matter weight % ([6]; 5° C., Starting time, colorless vials): 0.33 weight %
- pH ([6]; 5° C., Starting time, redissolved in water): 3.8
- Total analogous matter weight % ([6]; 25° C., 60% R.H., 1 month): 0.33 weight %
- pH ([6]; 25° C., 60% R.H., 1 month): 3.9
- Total analogous matter weight % ([6]; 25° C., 60% R.H., 3 months): 0.33 weight %
- pH ([6]; 25° C., 60% R.H., 3 months): 3.9
- Total analogous matter weight % ([6]; 25° C., 60% R.H., 6 months): 0.33 weight %
- pH ([6]; 25° C., 60% R.H., 6 months): 3.7
- Total analogous matter weight % ([6]; 25° C., 60% R.H., 9 months): 0.33 weight %
- pH ([6]; 25° C., 60% R.H., 9 months): 4.0
- Total analogous matter weight % ([6]; 25° C., 60% R.H., 12 months): 0.33 weight %
- pH ([6]; 25° C., 60% R.H., 12 months): 4.0
- Total analogous matter weight % ([6]; 25° C., 60% R.H., 24 months): 0.33 weight %
- pH ([6]; 25° C., 60% R.H., 24 months): 4.3
- Total analogous matter weight % ([6]; 25° C., 60% R.H., 37 months): 0.33 weight %
- pH ([6]; 25° C., 60% R.H., 37 months): 3.9
- Total analogous matter weight % [6, 10]: 0.33 weight %
- pH [6, 10]: 3.8
- formation of the total analogous matter as weight % ([6]; until 37 months): ≤ 0.33%
- Weight % of total analogous matter ([7]; Maltose 50 mg/ml, 40° C., 75% R.H., 1 month, pH 4.0): 0.52 Weight %
- Weight % of total analogous matter ([7]; Maltose 50 mg/ml, 50° C., 1 month, pH 4.0): 0.80 Weight %
- Weight % of total analogous matter ([7]; Maltose 50 mg/ml, Starting time, pH 4.0 hydrochloric acid): 0.34 Weight %
- Weight % of total analogous matter ([7]; Maltose 100 mg/ml, 40° C., 75% R.H., 1 month, pH 4.0): 1.36 Weight %
- Weight % of total analogous matter ([7]; Maltose 100 mg/ml, 50° C., 1 month, pH 4.0): 2.24 Weight %
- Weight % of total analogous matter ([7]; Maltose 100 mg/ml, Starting time, pH 4.0): 0.50 Weight %
SMILES: CC[C@@]1(O)C(=O)OCc2c1cc1n(c2=O)Cc2c-1nc1cc(F)c(C)c3c1c2[C@@H](N)CC3.CS(=O)(=O)O [compound AS methanesulfonate, (1S,9S)-1-amino-9-ethyl-5-fluoro-2,3-dihydro-9-hydroxy-4-methyl-1H,12H-benzo[de]pyrano[3′,4′:6,7]indolizino[1,2-b]quinoline-10,13(9H,15H)-dione methanesulfonate]
